Results taken from publication doi:10.1101/2022.01.16.476523v1, “Novel MBLs inhibitors screened from FDA-approved drug library restore the susceptibility of carbapenems to NDM-1-harbouring bacteria” (biorxiv, 2022).
In brackets after ≈: the same amount, converted by molar mass.

Tests used:
Assay in all cases: microbe, parasite or virus in culture
Design in all cases: CLSI broth microdilution MIC in LB, lowest concentration with no visible growth
E. coli ZJ487 (NDM-1) = test system: T1, E. coli ZJ487 (NDM-1); details: Escherichia coli; antibiotic alone; read-out: MIC (μg/mL) Alone
T1 construct: ZJ487 (NDM-1)
Method: (§1) MIC values were determined according to the broth microdilution guidelines of the Clinical and Laboratory Standards Institute (CLSI). After the tested strains were diluted with LB to a final concentration of 5×10^5 CFUs/mL, various concentrations of meropenem (0-256 μg/mL) and increasing concentrations of inhibitors (0-64 μg/mL) were added to the sterile 96-well plate, and further incubated for 18-24 h at 37 °C. The lowest concentration with no visible growth was considered as the MIC value. The synergistic effect of antibiotics and inhibitors was assessed by determining the fractional inhibitory concentration (FIC) index values according to the formula: FICI = (MIC of inhibitors in combination/MIC of inhibitors) + (MIC of antibiotics in combination/MIC of antibiotics).

[1] = test system: T2, K. pneumoniae QD-KP1 (NDM-1); details: Klebsiella pneumoniae; antibiotic alone; read-out: MIC (μg/mL) Alone
T2 construct: QD-KP1 (NDM-1)
Method: (§2) MIC values were determined according to the broth microdilution guidelines of the Clinical and Laboratory Standards Institute (CLSI). After the tested strains were diluted with LB to a final concentration of 5×10^5 CFUs/mL, various concentrations of meropenem (0-256 μg/mL) and increasing concentrations of inhibitors (0-64 μg/mL) were added to the sterile 96-well plate, and further incubated for 18-24 h at 37 °C. The lowest concentration with no visible growth was considered as the MIC value.

[2] = test system: T3, E. coli BL21 (pET28a-SP-NDM-1); details: Escherichia coli, read-out: MIC (μg/mL) Alone
T3 construct: BL21 (pET28a-SP-NDM-1)
Method: as §1

E. coli 2Z69 (NDM-5) = test system: T4, E. coli 2Z69 (NDM-5); details: Escherichia coli; antibiotic alone; read-out: MIC (μg/mL) Alone
T4 construct: 2Z69 (NDM-5)
Method: as §1

E. coli E1 (NDM-1) = test system: T5, E. coli E1 (NDM-1); details: Escherichia coli; antibiotic alone; read-out: MIC (μg/mL) Alone
T5 construct: E1 (NDM-1)
Method: as §2

E. coli E2 (NDM-9) = test system: T6, E. coli E2 (NDM-9); details: Escherichia coli; antibiotic alone; read-out: MIC (μg/mL) Alone
T6 construct: E2 (NDM-9)
Method: as §1

E. coli ZC-YN3 (NDM-1) = test system: T7, E. coli ZC-YN3 (NDM-1); details: Escherichia coli; antibiotic alone; read-out: MIC (μg/mL) Alone
T7 construct: ZC-YN3 (NDM-1)
Method: as §1

[3] = test system: T8, K. pneumoniae QD-KP3 (NDM-1); details: Klebsiella pneumoniae; antibiotic alone; read-out: MIC (μg/mL) Alone
T8 construct: QD-KP3 (NDM-1)
Method: as §1

E. cloacae 20712 (VIM-1) = test system: T9, E. cloacae 20712 (VIM-1); details: Enterobacter cloacae; antibiotic alone; read-out: MIC (μg/mL) Alone
T9 construct: 20712 (VIM-1)
Method: as §1

E. coli ZC-YN7 (NDM-9) = test system: T10, E. coli ZC-YN7 (NDM-9); details: Escherichia coli; antibiotic alone; read-out: MIC (μg/mL) Alone
T10 construct: ZC-YN7 (NDM-9)
Method: as §1

E. coli 2Z49 (NDM-5) = test system: T11, E. coli 2Z49 (NDM-5); details: Escherichia coli; antibiotic alone; read-out: MIC (μg/mL) Alone
T11 construct: 2Z49 (NDM-5)
Method: as §2

E. coli ATCC 25922 = test system: T12, E. coli ATCC 25922; details: Escherichia coli, ATCC25922; antibiotic alone; read-out: MIC (μg/mL) Alone
T12 construct: ATCC 25922
Method: as §2

E. coli E4 (NDM-5) = test system: T13, E. coli E4 (NDM-5); details: Escherichia coli; antibiotic alone; read-out: MIC (μg/mL) Alone
T13 construct: E4 (NDM-5)
Method: as §1

E. cloacae 20710 (VIM-1) = test system: T14, E. cloacae 20710 (VIM-1); details: Enterobacter cloacae; antibiotic alone; read-out: MIC (μg/mL) Alone
T14 construct: 20710 (VIM-1)
Method: as §1

[4] = test system: T15, K. pneumoniae QD-KP2 (NDM-1); details: Klebsiella pneumoniae; antibiotic alone; read-out: MIC (μg/mL) Alone
T15 construct: QD-KP2 (NDM-1)
Method: as §2

E. coli D3 (NDM-1) = test system: T16, E. coli D3 (NDM-1); details: Escherichia coli; antibiotic alone; read-out: MIC (μg/mL) Alone
T16 construct: D3 (NDM-1)
Method: as §1

In the case of `C[C@@H](O)[C@H]1C(=O)N2C(C(=O)O)=C(SCCNC=N)C[C@H]12` [Imipenem], the MIC (E. coli ZJ487 (NDM-1)) is reported as 13.3 ± 3.77 µg/mL (≈ 44.5 µM).
`CNC(C)[C@@H]1CC[C@@H](N)[C@@H](O[C@H]2[C@H](O)[C@@H](O[C@H]3OC[C@](C)(O)[C@H](NC)[C@H]3O)[C@H](N)C[C@@H]2N)O1` (stereo partly drawn) [Gentamicin] gave an MIC (E. coli ZJ487 (NDM-1)) of 341 ± 121 µg/mL (≈ 715 µM).
`C[C@@H](O)[C@H]1C(=O)N2C(C(=O)O)=C(S[C@@H]3CN[C@H](C(=O)N(C)C)C3)[C@H](C)[C@H]12` [Meropenem] was tested, and the MIC [1] was 64 µg/mL (≈ 167 µM), the MIC [2] was 128 µg/mL (≈ 334 µM) and the MIC (E. coli 2Z69 (NDM-5)) was 32 µg/mL (≈ 83.4 µM). The MIC (E. coli E1 (NDM-1)) was 13.3 ± 3.77 µg/mL (≈ 34.8 µM), the MIC (E. coli E2 (NDM-9)) was 53.3 ± 15.1 µg/mL (≈ 139 µM) and the MIC (E. coli ZC-YN3 (NDM-1)) was 21.3 ± 7.54 µg/mL (≈ 55.6 µM). It also gave an MIC [3] of 128 µg/mL (≈ 334 µM), an MIC (E. cloacae 20712 (VIM-1)) of 32 µg/mL (≈ 83.4 µM) and an MIC (E. coli ZC-YN7 (NDM-9)) of 13.3 ± 3.77 µg/mL (≈ 34.8 µM). The MIC (E. coli 2Z49 (NDM-5)) was 32 µg/mL (≈ 83.4 µM), the MIC (E. coli ATCC 25922) was 0.03 µg/mL (≈ 0.0782 µM) and the MIC (E. coli E4 (NDM-5)) was 53.3 ± 15.1 µg/mL (≈ 139 µM). It also gave an MIC (E. cloacae 20710 (VIM-1)) of 32 µg/mL (≈ 83.4 µM), an MIC (E. coli ZJ487 (NDM-1)) of 32 µg/mL (≈ 83.4 µM) and an MIC [4] of 107 ± 30.2 µg/mL (≈ 278 µM). For the same molecule, the MIC (E. coli D3 (NDM-1)) was 13.3 ± 3.77 µg/mL (≈ 34.8 µM).
For `CC1(C)S[C@@H]2[C@H](NC(=O)[C@H](N)c3ccc(O)cc3)C(=O)N2[C@H]1C(=O)O` [Amoxicillin], the MIC (E. coli ZJ487 (NDM-1)) was 512 µg/mL (≈ 1400 µM).
In the case of `CN(C)[C@@H]1C(O)=C(C(N)=O)C(=O)[C@@]2(O)C(O)=C3C(=O)c4c(O)cccc4[C@@](C)(O)[C@H]3C[C@@H]12` [Tetracycline], the MIC (E. coli ZJ487 (NDM-1)) is reported as 213 ± 60.3 µg/mL (≈ 480 µM).
In the case of `O=C(N[C@H](CO)[C@H](O)c1ccc([N+](=O)[O-])cc1)C(Cl)Cl` [Chloramphenicol], the MIC (E. coli ZJ487 (NDM-1)) is reported as 8 µg/mL (≈ 24.8 µM).
